Experimental findings from article PMC12441834, “Highly Potent and Subtype-Selective Sperm-Specific Potassium Channel SLO3 Inhibitors Display High Tissue Exposure in the Murine Female Reproductive Tract” (ACS Pharmacology & Translational Science, 2025) are described below.

Assay [1] concerns the target T1, mouse SLO3 (Mus musculus, UniProt O54982).
T1 construct: expressed in transfected cells; host or cells: HEK293 (transient, Lipofectamine 3000, with pmaxGFP as marker)
T1 sequence (O54982 1-1121): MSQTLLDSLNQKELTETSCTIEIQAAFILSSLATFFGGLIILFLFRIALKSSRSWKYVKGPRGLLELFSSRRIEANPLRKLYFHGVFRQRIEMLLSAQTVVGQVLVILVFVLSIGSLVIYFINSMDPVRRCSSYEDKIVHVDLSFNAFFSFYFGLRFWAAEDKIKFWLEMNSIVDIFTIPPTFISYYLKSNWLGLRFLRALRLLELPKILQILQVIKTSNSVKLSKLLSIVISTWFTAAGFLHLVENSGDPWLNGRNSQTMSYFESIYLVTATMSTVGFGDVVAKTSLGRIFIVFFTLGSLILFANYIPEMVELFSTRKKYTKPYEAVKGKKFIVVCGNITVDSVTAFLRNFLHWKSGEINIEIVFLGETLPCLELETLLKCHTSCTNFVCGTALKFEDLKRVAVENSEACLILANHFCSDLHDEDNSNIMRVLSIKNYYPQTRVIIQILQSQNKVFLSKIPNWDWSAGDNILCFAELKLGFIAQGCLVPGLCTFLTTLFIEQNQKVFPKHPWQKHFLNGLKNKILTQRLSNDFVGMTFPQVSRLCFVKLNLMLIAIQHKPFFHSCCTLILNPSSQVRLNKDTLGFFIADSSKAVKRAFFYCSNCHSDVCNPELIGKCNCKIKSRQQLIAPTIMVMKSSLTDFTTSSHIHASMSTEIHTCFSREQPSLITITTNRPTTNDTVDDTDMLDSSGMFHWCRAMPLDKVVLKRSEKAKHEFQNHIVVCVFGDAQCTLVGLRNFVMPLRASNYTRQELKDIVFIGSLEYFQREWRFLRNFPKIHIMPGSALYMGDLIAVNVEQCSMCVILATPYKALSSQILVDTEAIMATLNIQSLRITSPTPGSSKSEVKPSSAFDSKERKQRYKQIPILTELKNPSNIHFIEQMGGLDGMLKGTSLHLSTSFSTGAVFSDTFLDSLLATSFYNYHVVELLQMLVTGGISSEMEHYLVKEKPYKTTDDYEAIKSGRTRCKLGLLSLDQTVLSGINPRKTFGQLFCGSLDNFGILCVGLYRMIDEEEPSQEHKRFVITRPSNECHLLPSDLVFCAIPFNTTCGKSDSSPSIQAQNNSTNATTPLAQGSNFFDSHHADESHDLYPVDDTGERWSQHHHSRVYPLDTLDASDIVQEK
T1 sequence (Q5M8M9 24-314 partner): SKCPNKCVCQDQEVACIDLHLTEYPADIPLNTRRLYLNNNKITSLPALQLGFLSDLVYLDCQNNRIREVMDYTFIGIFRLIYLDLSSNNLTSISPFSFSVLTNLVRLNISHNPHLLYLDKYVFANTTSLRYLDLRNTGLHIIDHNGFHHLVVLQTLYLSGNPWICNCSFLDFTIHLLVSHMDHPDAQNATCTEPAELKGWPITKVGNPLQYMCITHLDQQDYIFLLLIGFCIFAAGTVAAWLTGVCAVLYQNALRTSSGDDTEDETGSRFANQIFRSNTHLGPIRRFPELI
Kind of assay: Whole-cell recording, mouse SLO3-γ2 expressed in HEK293 cells. It counts as cell-based. The note with it: for IC50: HEK293 cells transfected with murine SLO3-γ2, read-out: mSLO3 IC50; for Hill coefficient: mouse SLO3-γ2 in HEK293 cells. Here is the method:
HEK293 cells were plated at a density of ∼400,000 cells per 40 mm dish the day before transfection. Lipofectamine 3000 transfection reagent (catalog #L3000015; Thermo Fisher Scientific) was used to transfect HEK293 cells following manufacturer’s instructions. Per 40 mm dish, 2.25 μg of mouse SLO3 and its auxiliary subunit γ2 cDNAs (1:1) were added to cell layers that were 70–90% confluent. As a marker for transfection, cells were cotransfected with pmaxGFP, a CMV plasmid expressing green fluorescent protein (Amaxa Biosystems) at 0.2 μg per dish. After transfection, the cells were incubated at 37 °C with 5% CO2 for 2–4 d until recording.
(§1) Voltage-clamp recordings were performed using an Axopatch 200B amplifier (Molecular Devices). Recordings were filtered at 5 kHz with the internal filter of the amplifier and digitized at 50 kHz using a Digidata 1550B digitizer (Molecular Devices). Recording pipettes were pulled from borosilicate glass with tip resistances of 3–8 MΩ after filling with pipette solution containing (in mM): 140 KMES, 1 EGTA, 10 HEPES, pH 7.4 with KOH. Bath solutions contained (in mM): 135 NaMES, 5 KMES, 2 MgCl2, and 10 HEPES, pH 7.4 with NaOH. Experiments were performed at room temperature (∼22 °C). Whole-cell currents were evoked from a holding potential of −60 mV in steps from −80 to +100 mV in 10 mV increments. Test compounds were prepared daily from a 10 mM stock solution (in DMSO).
(§2) Data were analyzed with a pClamp 10.6 (Molecular Devices). VU6047606 and VU6032735 inhibition dose–response relationships were fit by the Hill equation in OriginPro 7.5 (OriginLab Corporation): R=1/1+(C/IC50)^n+Ioff , in which R is fractional unblock, C is compound concentration, IC50 is the half inhibition concentration, n is the Hill coefficient, and I off is an offset item for leak current. Error bars in the figures represent the SDs. Each data point is averaged from at least 5 measurements. Curve-fitting results are reported as the fitted values with standard error, which was estimated by OriginPro according to the Error Propagation formula.

Assay [2] concerns the target T2, mouse SLO3 (KSper currents in mouse sperm) (Mus musculus, UniProt O54982).
T2 construct: sperm were isolated from the corpus epididymis by swim-out; endogenous in cells; host or cells: C57Bl/6 mouse corpus epididymal sperm
T2 sequence (O54982 1-1121): T1 sequence (O54982 1-1121)
T2 sequence (Q5M8M9 24-314 partner): T1 sequence (Q5M8M9 24-314 partner)
The experiment in a line: Whole-cell recording of KSper currents in mouse sperm. The format is cell-based. The note with it: for Hill coefficient: mouse sperm KSper currents; for IC50: whole-cell recordings from mouse sperm. Here is the method:
Electrophysiology: C57Bl/6 sexually mature male mice (60–90 days old) were euthanized by inhalation of CO2 followed by cervical dislocation and sperm were isolated from the corpus epididymis by swim-out. Then the sperm suspension was collected and centrifuged (500×g, 6 min) twice to purify the sperm. HEPES-buffered saline (HS) was used for sperm swim-out and storage. It contained (in mM): 135 NaCl, 5 KCl, 1 MgSO4, 2 CaCl2, 20 HEPES, 5 glucose, 10 lactic acid, and 1 Na·pyruvate at pH 7.4. The sperm suspension was kept at room temperature (∼22 °C) for 4–6 h until recording. All animal husbandry and experimental procedures were approved by the Animal Studies Committee of the Washington University in St. Louis School of Medicine.
as §1
For mouse sperm recordings, the pipettes were fire-polished with Microforge MF-830 (Narishige, Japan) to reach tip resistances of 8–12 MΩ. The giga-ohm (GΩ) seals were formed between the glass micropipette and the sperm cytoplasmic droplet in HS solution. Break-in to whole-cell mode was achieved by applying short (1–5 ms) voltage pulses of 488–888 mV.
as §2

Assay [3] concerns the target GABAB1A (Homo sapiens, UniProt Q9UBS5). The experiment in a line: LeadProfilingScreen radioligand binding.
Assay [4] deals with Melatonin MT1 (Homo sapiens, UniProt P48039). Kind of assay: LeadProfilingScreen radioligand binding.
Sequence of Melatonin MT1 (P48039 whole entry): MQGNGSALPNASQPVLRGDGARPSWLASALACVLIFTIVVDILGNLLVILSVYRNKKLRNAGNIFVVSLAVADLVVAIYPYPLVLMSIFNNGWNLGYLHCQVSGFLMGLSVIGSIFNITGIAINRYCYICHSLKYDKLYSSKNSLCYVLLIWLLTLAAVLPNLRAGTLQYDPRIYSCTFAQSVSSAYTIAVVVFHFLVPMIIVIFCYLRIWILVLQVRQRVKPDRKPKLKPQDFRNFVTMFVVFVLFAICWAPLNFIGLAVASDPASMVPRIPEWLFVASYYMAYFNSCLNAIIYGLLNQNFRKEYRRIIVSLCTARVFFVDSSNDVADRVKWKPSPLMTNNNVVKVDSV

Read-outs that look alike come from different tables or passages of the source.

Sequence of GABAB1A (Q9UBS5 15-961 limits assumed): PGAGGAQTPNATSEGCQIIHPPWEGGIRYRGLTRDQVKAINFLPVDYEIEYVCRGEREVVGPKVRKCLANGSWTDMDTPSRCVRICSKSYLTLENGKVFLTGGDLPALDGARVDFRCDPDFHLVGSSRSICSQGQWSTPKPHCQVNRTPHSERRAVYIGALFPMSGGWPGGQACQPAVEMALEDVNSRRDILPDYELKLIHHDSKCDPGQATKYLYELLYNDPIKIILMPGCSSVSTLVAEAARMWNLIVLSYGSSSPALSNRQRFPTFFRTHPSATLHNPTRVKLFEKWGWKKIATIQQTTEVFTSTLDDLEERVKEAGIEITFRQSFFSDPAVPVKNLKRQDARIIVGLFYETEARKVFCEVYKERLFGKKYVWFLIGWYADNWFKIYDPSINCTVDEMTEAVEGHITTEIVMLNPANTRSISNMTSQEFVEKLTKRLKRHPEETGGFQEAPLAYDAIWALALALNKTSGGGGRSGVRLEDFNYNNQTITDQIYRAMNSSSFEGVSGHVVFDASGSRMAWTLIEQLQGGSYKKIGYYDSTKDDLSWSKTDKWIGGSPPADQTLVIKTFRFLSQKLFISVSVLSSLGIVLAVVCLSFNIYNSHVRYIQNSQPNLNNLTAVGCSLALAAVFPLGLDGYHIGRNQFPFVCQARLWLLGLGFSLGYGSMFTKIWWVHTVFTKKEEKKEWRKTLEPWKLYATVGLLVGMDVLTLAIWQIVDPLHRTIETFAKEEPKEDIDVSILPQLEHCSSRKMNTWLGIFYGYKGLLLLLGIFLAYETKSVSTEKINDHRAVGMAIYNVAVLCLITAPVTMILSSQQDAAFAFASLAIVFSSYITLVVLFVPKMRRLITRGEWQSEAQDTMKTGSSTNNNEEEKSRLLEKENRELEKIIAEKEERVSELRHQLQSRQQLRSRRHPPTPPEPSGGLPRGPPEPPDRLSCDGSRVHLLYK
Sequence of GABAB1A (O75899 42-941 partner): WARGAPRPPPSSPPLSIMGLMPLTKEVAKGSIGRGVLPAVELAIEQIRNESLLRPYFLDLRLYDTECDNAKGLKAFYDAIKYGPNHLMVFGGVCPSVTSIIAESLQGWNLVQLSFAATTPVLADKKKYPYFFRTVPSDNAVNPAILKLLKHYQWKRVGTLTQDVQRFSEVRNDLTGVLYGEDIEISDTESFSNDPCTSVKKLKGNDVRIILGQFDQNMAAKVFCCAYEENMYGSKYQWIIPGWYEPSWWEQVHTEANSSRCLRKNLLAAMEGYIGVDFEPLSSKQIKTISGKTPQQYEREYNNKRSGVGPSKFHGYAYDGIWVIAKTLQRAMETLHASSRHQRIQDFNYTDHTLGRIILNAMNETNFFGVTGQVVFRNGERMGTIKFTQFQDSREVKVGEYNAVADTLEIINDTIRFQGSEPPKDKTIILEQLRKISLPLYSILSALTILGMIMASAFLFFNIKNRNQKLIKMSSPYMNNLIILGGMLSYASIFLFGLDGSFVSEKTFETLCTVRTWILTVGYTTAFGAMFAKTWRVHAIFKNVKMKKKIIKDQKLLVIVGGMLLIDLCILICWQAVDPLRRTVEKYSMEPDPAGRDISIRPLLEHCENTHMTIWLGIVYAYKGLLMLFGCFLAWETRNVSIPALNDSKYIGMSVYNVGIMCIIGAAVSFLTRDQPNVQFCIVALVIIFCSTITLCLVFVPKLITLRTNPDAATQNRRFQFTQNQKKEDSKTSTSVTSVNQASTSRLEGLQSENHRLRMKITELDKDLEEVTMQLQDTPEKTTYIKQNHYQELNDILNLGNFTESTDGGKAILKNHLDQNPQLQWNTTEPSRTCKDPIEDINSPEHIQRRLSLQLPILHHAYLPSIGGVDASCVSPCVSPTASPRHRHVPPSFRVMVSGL

`Cc1cc(Cl)cc2sc(O[C@H]3CCN(C(=O)CCCS(=O)(=O)c4cccc(Br)c4)C[C@H]3F)nc12` [VU6047606]: the half-inhibitory concentration (IC50) (commonly the concentration needed to halve the response being measured) in assay [1] is 1.15 µM; in assay [2] (currents at +100 mV, read-out: mSLO3 IC50 (mouse sperm KSper currents)), 1.47 µM. For the same compound, the Hill coefficient (in general, a measure of the steepness of the concentration-response curve) stood at 0.83 ± 0.19 in assay [1] and 1.02 ± 0.12 in assay [2]. Besides, in assay [1] (mouse versus human SLO3), the “fold less potent on murine SLO3 than on human SLO3” value is about 7 fold. In addition, the inhibition (commonly the share of the control response that was lost under treatment) at 10 µM in assay [3] turned out to be 12%; in assay [4], 19%.
With `O=C(c1ccc(OCc2ccc(OC(F)(F)F)cc2)cc1)N1CCN(c2ccc(C(F)(F)F)cn2)CC1` [VU6032735], the figures for the IC50 in assay [1] and in assay [2] (read-out: mSLO3 IC50 (mouse sperm)) were 0.73 µM and 0.91 µM, respectively. Besides, the “fold more potent than VU6047606 on mouse SLO3” value in assay [1] (HEK293 cells, mSLO3-γ2) is on record as about 1.6 fold. In addition, the Hill coefficient in assay [1] stood at 1.03 ± 0.02; in assay [2] it was 0.78 ± 0.07. Further, in assay [2] (mouse sperm), the “fold more potent than VU6047606 on mouse SLO3 currents” value is given as about 1.6 fold. The inhibition at 10 µM in assay [3] is 31%; in assay [4], 8%.
